In PubChem BioAssay (NCI):
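Five concentrations, 48 hours, 96-well plates. GI50 marks 50% less growth. At the TGI there is no net growth.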

How the values were obtained:
Test in all cases: growth of human tumour cells (NCI), 48 h
TK-10 renal = tested on: TK-10 renal
NCI-H226 lung = tested on: NCI-H226 lung
HOP-92 NSCLC = tested on: HOP-92 NSCLC
DU-145 prostate = tested on: DU-145 prostate
NCI-H522 lung = tested on: NCI-H522 lung
LOX IMVI melanoma = tested on: LOX IMVI melanoma
HT29 colon = tested on: HT29 colon
A549 NSCLC = tested on: A549 NSCLC
SNB-19 CNS = tested on: SNB-19 CNS
A498 renal = tested on: A498 renal

Structure (SMILES)	GI50 (TK-10 renal) [µM]	TGI (TK-10 renal) [µM]	GI50 (NCI-H226 lung) [µM]	TGI (NCI-H226 lung) [µM]	GI50 (HOP-92 NSCLC) [µM]	TGI (HOP-92 NSCLC) [µM]	GI50 (DU-145 prostate) [µM]	TGI (DU-145 prostate) [µM]	GI50 (NCI-H522 lung) [µM]	TGI (NCI-H522 lung) [µM]	GI50 (LOX IMVI melanoma) [µM]	TGI (LOX IMVI melanoma) [µM]	GI50 (HT29 colon) [µM]	TGI (HT29 colon) [µM]	GI50 (A549 NSCLC) [µM]	TGI (A549 NSCLC) [µM]	GI50 (SNB-19 CNS) [µM]	TGI (SNB-19 CNS) [µM]	TGI (A498 renal) [µM]	GI50 (A498 renal) [µM]
Nc1nc(N)c2cc(S(=O)(=O)c3cccc(C(F)(F)F)c3)ccc2n1	7.78	> 100	21.5	> 100	3.56	38	6.35	> 100	3.05	> 100	1.53	> 100	2.42	> 100	0.816	> 100	5.44	> 100	–	–
O=C1CN=C(c2ccccc2)c2ccncc2N1	–	> 100	–	> 100	–	> 100	–	–	–	> 100	–	> 100	–	> 100	–	> 100	–	> 100	> 100	–
CN(N=O)C(=O)NC(CCCCNC(=O)OCc1ccccc1)C(=O)OCc1ccccc1 (stereo not given)	–	> 100	–	> 100	–	54.2	–	–	–	29.1	–	37.1	–	> 100	–	> 100	–	> 100	> 100	–
COc1ccc(CC(C)NCC(O)c2ccc(O)c(NC=O)c2)cc1 (stereo not given)	–	> 100	–	> 100	–	–	–	> 100	–	> 100	–	> 100	–	> 100	–	> 100	–	> 100	> 100	–
CCOP(=O)(OCC)C(C(=O)OC)C(=O)C(=O)Nc1cccc([N+](=O)[O-])c1 (stereo not given)	–	> 100	–	> 100	–	–	–	–	–	> 100	–	> 100	–	> 100	–	> 100	–	> 100	> 100	–
CC(C)(Sc1cc(C(C)(C)C)c(O)c(C(C)(C)C)c1)Sc1cc(C(C)(C)C)c(O)c(C(C)(C)C)c1	–	> 100	–	–	–	–	–	> 100	–	> 100	–	> 100	–	> 100	–	> 100	–	> 100	> 100	–
c1ccc2[nH]c(-c3ccc(Nc4nc(N5CCCC5)nc5[nH]ncc45)cc3)nc2c1	1.91	3.53	1.8	4.01	1.14	2.75	1.13	2.77	0.244	1.07	–	–	0.211	0.495	0.329	1.22	–	–	3.01	1.51
COc1ccc(C(O)C(c2ccc(OCc3ccccc3)cc2)c2ccc(OCc3ccccc3)cc2)cc1 (stereo not given)	–	> 100	–	> 100	–	> 100	–	–	–	> 100	–	–	–	> 100	–	> 100	–	> 100	–	–
COCCn1c(Nc2ccc(C(=O)NO)cc2)nc2ccccc21	3.19	44.6	13.7	36.9	–	–	2.91	14.7	2.28	13.6	5.9	19	2.97	> 100	4.9	23	10.7	30	9.17	2.64
O=S(=O)(c1ccccc1)N1CCC1c1ccccc1 (stereo not given)	–	> 100	–	> 100	–	> 100	–	–	–	> 100	–	> 100	–	> 100	–	> 100	–	> 100	> 100	–
C=CCn1c(SCC(=O)Nc2ccc(C(=O)/C=C/c3cc(OC)c(OC)c(OC)c3)cc2)nnc1-c1cc(OC)c(OC)c(OC)c1	23.3	58.8	–	–	12.5	56.6	6.09	> 100	6.89	27.2	2.3	6.53	2.66	6.14	6.46	36.5	4.3	73.2	20.3	7.4
Cc1cc(C)c2c(c1)CSCc1cc(C)cc(C)c1-2	–	> 100	–	> 100	–	–	–	–	–	48	–	33.2	–	47.1	–	> 100	–	> 100	79.9	–
O=[N+]([O-])c1ccc(Cl)c(C2CC(c3cccc4ccccc34)=Nc3ccccc3S2=O)c1 (stereo not given)	–	98.2	–	> 54.5	–	22.8	–	–	–	–	–	> 31.6	–	37.9	–	> 100	–	> 53.8	64.7	–
CCOc1ccc2c(c1)[n+]([O-])c(C(N)=O)c(N)[n+]2[O-]	–	–	–	> 100	–	> 100	–	–	–	> 100	–	–	–	> 100	–	> 100	–	> 100	> 100	–
COc1cccc(C2CC(C)(O)Oc3cc4c(cc32)OCO4)c1 (stereo not given)	–	80.2	–	53	–	93.3	–	> 100	–	30.6	–	> 100	–	28.8	–	> 100	–	> 100	–	–
COc1ccc2c(c1)c(-c1ccc(-c3cn(C)c4ccc(OC)cc34)s1)cn2C	> 100	> 100	> 100	> 100	–	–	> 100	> 100	> 100	> 100	> 100	> 100	> 100	> 100	> 100	> 100	> 100	> 100	> 100	> 100
[Cu].c1ccc2c(c1)C1=NC2=NC2=NC(=NC3=NC(=NC4=NC(=N1)c1ccccc14)c1ccccc13)c1ccccc12	> 100	> 100	–	–	> 100	> 100	> 100	> 100	> 100	> 100	> 100	> 100	> 100	> 100	> 100	> 100	> 100	> 100	> 100	> 100
O=C(O)c1ccccc1NS(=O)(=O)c1ccc(Cl)cc1	–	> 100	–	> 100	–	81.5	–	–	–	> 100	–	> 100	–	> 100	–	> 100	–	> 100	–	–
